Source: patent US10167279B2 (NOVARTIS AG, priority 2014, dated 2019)

What was measured:
b-Raf (V600E) = b-Raf (V600E) (Homo sapiens (Human), UniProt P15056, V600E); assay: In vitro Raf activity determination (Alpha Screen, phospho-MEK), b-Raf (V600E); assay type: biochemical; conditions: ATP 10 μM, 60 min pre-incubation, 3 hours reaction
From the text: The activity of a compound according to the present invention can be assessed by well-known in vitro & in vivo methods. Raf inhibition data provided herein was obtained using the following procedures.
Sf9 cells co-expressing both proteins were lysed and subjected to immobilized nickel chromatography and eluted with Imidazole. A second column (StrepII binding column) was used and eluted with desthiobiotin. Protein Tags were removed using Prescission enzyme and the protein was further purified using a flowthrough step to remove tags.
Full length MEK1 with an inactivating K97R ATP binding site mutation is utilized as a RAF substrate. The MEK1 cDNA was subcloned with an N-terminal (his)6 tag into a vector for E. Coli expression. The MEK1 substrate was purified from E. Coli lysate by nickel affinity chromatography followed by anion exchange. The final MEK1 preparation was biotinylated (Pierce EZ-Link Sulfo-NHS-LC-Biotin) and concentrated.
The plate was incubated for 60 minutes at room temperature. […] The additions were carried out under dark conditions to protect the detection beads from light. A lid was placed on top of the plate and incubated for 1 hour at room temperature, after which the luminescence was read on a PerkinElmer Envision instrument.

C-Raf FL = C-Raf FL (Homo sapiens (Human), UniProt P04049, Y340E/Y341E); assay: In vitro Raf activity determination (Alpha Screen, phospho-MEK), C-Raf FL (full length, Y340E/Y341E); assay type: biochemical; conditions: ATP 1 μM; 60 min pre-incubation; 1 hour reaction; column head does not say FL or TR
Summary of the method: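 Sf9-expressed C-Raf incubated with biotinylated kinase-dead MEK1 (K97R) in 50 mM Tris pH 7.5, 15 mM MgCl2, 0.01% BSA, 1 mM DTT with compound, 60 min at room temperature. Phospho-MEK detected by anti-p-MEK AlphaScreen luminescence; IC50 by non-linear regression.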

Chain of C-Raf FL (P04049 whole entry Y340E/Y341E): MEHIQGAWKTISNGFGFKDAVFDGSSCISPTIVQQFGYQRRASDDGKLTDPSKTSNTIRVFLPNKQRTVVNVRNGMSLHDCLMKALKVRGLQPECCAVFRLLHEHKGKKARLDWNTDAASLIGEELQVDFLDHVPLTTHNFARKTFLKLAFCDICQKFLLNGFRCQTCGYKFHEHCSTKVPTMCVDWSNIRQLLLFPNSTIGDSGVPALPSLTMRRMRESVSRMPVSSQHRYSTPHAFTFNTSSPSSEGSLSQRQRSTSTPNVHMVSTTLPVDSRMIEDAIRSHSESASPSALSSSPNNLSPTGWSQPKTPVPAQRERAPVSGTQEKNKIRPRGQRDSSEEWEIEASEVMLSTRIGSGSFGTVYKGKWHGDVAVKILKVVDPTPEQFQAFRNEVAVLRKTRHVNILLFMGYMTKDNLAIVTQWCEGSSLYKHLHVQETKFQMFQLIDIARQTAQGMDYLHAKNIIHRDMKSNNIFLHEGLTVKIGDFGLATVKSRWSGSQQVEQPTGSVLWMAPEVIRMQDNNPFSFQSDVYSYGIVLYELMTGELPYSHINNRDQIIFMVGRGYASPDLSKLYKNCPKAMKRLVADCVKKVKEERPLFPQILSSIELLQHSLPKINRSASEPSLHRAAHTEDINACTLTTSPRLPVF
Chain of C-Raf FL (P63104 whole entry partner): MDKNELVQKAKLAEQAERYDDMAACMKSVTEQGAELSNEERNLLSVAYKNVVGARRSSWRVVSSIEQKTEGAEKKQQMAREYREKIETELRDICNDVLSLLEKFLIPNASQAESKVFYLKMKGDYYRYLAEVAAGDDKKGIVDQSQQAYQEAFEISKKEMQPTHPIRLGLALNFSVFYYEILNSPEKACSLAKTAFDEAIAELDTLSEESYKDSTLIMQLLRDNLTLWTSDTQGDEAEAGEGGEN
Chain of b-Raf (V600E) (P15056 whole entry V600E): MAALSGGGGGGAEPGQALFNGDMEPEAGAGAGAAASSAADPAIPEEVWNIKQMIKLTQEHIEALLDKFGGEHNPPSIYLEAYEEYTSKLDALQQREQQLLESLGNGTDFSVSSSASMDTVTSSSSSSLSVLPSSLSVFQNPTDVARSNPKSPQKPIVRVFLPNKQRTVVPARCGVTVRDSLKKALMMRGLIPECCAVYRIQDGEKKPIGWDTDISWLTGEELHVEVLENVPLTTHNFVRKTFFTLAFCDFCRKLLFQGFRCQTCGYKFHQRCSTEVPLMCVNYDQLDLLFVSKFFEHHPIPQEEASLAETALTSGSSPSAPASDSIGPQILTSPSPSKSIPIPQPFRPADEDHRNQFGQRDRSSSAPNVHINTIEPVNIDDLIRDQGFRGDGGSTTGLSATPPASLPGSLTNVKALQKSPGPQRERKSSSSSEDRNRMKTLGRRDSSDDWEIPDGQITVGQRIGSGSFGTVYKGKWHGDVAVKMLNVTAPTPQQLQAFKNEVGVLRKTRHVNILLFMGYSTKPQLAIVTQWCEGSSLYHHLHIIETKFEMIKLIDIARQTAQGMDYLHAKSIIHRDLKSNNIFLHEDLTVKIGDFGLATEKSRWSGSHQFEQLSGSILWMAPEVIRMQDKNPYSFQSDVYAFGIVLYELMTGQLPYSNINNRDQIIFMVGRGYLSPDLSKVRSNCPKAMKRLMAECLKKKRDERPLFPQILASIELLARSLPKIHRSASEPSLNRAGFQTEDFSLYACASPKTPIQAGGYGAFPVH

| IC50 (b-Raf (V600E)) [nM] | IC50 (C-Raf FL) [nM] | Structure (SMILES) |
| --- | --- | --- |
| 3.56 | 0.622 | COc1ncc(-c2cc(NC(=O)c3cc(C(C)(C)C#N)ccn3)ccc2C)cc1C1(F)COC1 [Example 87] |
| 4.93 | 0.975 | CCOc1ncc(-c2cc(NC(=O)c3ccnc(C(C)(C)C#N)c3)ccc2C)cc1C1(O)COC1 [Example 121, 2-(2-cyanopropan-2-yl)-N-(3-(6-ethoxy-5-(3-hydroxyoxetan-3-yl)pyridin-3-yl)-4-methylphenyl)isonicotin-amide] |
| 7.12 | 1.18 | CCOc1ncc(-c2cc(NC(=O)c3ccnc(C(C)(C)C#N)c3)cnc2C)cc1C1(C)COC1 [Example 64, 2-(2-cyanopropan-2-yl)-N-(6′-ethoxy-2-methyl-5′-(3-methyloxetan-3-yl)-[3,3′-bipyridin]-5-yl)isonicotinamide] |
| 1.21 | 0.225 | COc1ncc(-c2cc(NC(=O)c3cc(C(C)(C)N)cc(C(F)(F)F)c3)ccc2C)cc1C1(C(F)F)COC1 [Example 112, 3-(2-aminopropan-2-yl)-N-(3-(5-(3-(difluoromethyl)oxetan-3-yl)-6-methoxypyridin-3-yl)-4-methylphenyl)-5-(trifluoromethyl)benzamide] |
| 2.84 | 0.351 | COc1ncc(-c2cc(NC(=O)c3ccnc(C(F)(F)F)c3)ccc2C)cc1C1(O)COC1 [Example 71, N-(3-(5-(3-hydroxyoxetan-3-yl)-6-methoxypyridin-3-yl)-4-methylphenyl)-2-(trifluoromethyl)isonicotin-amide] |
| 3.73 | 1.13 | COc1ncc(-c2cc(NC(=O)c3ccnc(C(C)(C)F)c3)cnc2C)cc1C1(F)COC1 [Example 82, N-(5′-(3-fluorooxetan-3-yl)-6′-methoxy-2-methyl-[3,3′-bipyridin]-5-yl)-2-(2-fluoropropan-2-yl)isonicotinamide] |
| 8.03 | 1.01 | COc1ncc(-c2cc(NC(=O)c3cc(C(C)(C)F)ccn3)cnc2C)cc1C1(F)COC1 [Example 93, N-(5′-(3-fluorooxetan-3-yl)-6′-methoxy-2-methyl-[3,3′-bipyridin]-5-yl)-4-(2-fluoropropan-2-yl)picolinamide] |
| 4.17 | 0.482 | COc1ncc(-c2cc(NC(=O)c3cc(C(C)(C)O)ccn3)ccc2C)cc1C1(F)COC1 [Example 96, N-(3-(5-(3-fluorooxetan-3-yl)-6-methoxypyridin-3-yl)-4-methylphenyl)-4-(2-hydroxypropan-2-yl)picolinamide] |
| 2.21 | 0.351 | COc1ncc(-c2cc(NC(=O)c3cc(C(F)(F)F)ccn3)ccc2C)cc1C1(O)COC1 [Example 84, N-(3-(5-(3-hydroxyoxetan-3-yl)-6-methoxypyridin-3-yl)-4-methylphenyl)-4-(trifluoromethyl)picolin-amide] |
| 6.47 | 1.17 | COc1ncc(-c2cc(NC(=O)c3cc(C(C)(C)C#N)ccn3)ccc2C)cc1C1(O)COC1 [Example 85, 4-(2-cyanopropan-2-yl)-N-(3-(5-(3-hydroxyoxetan-3-yl)-6-methoxypyridin-3-yl)-4-methylphenyl)picolinamide] |
| 31.8 | 4.24 | COc1ncc(-c2cc(NC(=O)c3cc(C(C)(C)F)ccn3)cnc2C)cc1C1(O)COC1 [Example 94, 4-(2-fluoropropan-2-yl)-N-(5′-(3-hydroxyoxetan-3-yl)-6′-methoxy-2-methyl-[3,3′-bipyridin]-5-yl)picolinamide] |
| 2.67 | 0.415 | COc1ncc(-c2cc(NC(=O)c3ccnc(C(C)(C)F)c3)ccc2C)cc1C1(O)COC1 [Example 99, 2-(2-fluoropropan-2-yl)-N-(3-(5-(3-hydroxyoxetan-3-yl)-6-methoxypyridin-3-yl)-4-methylphenyl)isonicotin-amide] |
| 1.79 | 0.321 | CCOc1ncc(-c2cc(NC(=O)c3ccnc(C(C)(C)F)c3)ccc2C)cc1C1(O)COC1 [Example 122, N-(3-(6-ethoxy-5-(3-hydroxyoxetan-3-yl)pyridin-3-yl)-4-methylphenyl)-2-(2-fluoropropan-2-yl)isonicotinamide] |
| 10.4 | 1.41 | COc1ncc(-c2cc(NC(=O)c3cccc(C(F)(F)F)c3)cnc2C)cc1C1(O)COC1 [Example 97, N-(5′-(3-hydroxyoxetan-3-yl)-6′-methoxy-2-methyl-[3,3′-bipyridin]-5-yl)-3-(trifluoromethyl)benzamide] |
| 7.01 | 1.06 | COc1ncc(-c2cc(NC(=O)c3ccnc(C(F)(F)F)c3)cnc2C)cc1C1(C#N)COC1 [Example 115, N-(5′-(3-cyanooxetan-3-yl)-6′-methoxy-2-methyl-[3,3′-bipyridin]-5-yl)-2-(trifluoromethyl)isonicotin-amide] |

More lines, now with the values behind:

| Structure (SMILES) | IC50 (b-Raf (V600E)) [nM] | IC50 (C-Raf FL) [nM] |
| --- | --- | --- |
| CCOc1ncc(-c2cc(NC(=O)c3ccnc(C(F)(F)F)c3)cnc2C)cc1C1(C)COC1 [Example 63, N-(6′-ethoxy-2-methyl-5′-(3-methyloxetan-3-yl)-[3,3′-bipyridin]-5-yl)-2-(trifluoromethyl)isonicotin-amide] | 0.613 | 0.183 |
| Cc1ncc(NC(=O)c2ccnc(C(C)(F)F)c2)cc1-c1cccc(C2(C)COC2)c1 [Example 68, 2-(1,1-difluoroethyl)-N-(6-methyl-5-(3-(3-methyloxetan-3-yl)phenyl)pyridin-3-yl)isonicotinamide] | 3.71 | 0.618 |
| Cc1ncc(NC(=O)c2ccnc(C(C)(F)F)c2)cc1-c1cccc(C2COC2)c1 [Example 70, 2-(1,1-difluoroethyl)-N-(6-methyl-5-(3-(oxetan-3-yl)phenyl)pyridin-3-yl)isonicotinamide] | 12.9 | 1.59 |
| Cc1ncc(NC(=O)c2cccc(C(F)(F)F)c2)cc1-c1cnc(OC2CCOCC2)c(C2(O)COC2)c1 [Example 118, N-(5′-(3-hydroxyoxetan-3-yl)-2-methyl-6′-((tetrahydro-2H-pyran-4-yl)oxy)-[3,3′-bipyridin]-5-yl)-3-(trifluoromethyl)benzamide] | 3.89 | 0.562 |
| Cc1ncc(NC(=O)c2ccnc(C(C)(F)F)c2)cc1-c1cnc(OCCO)c(C2(F)COC2)c1 [Example 39, 7-(1,1-difluoroethyl)-N-(5′-(3-fluorooxetan-3-yl)-6′-(2-hydroxyethoxy)-2-methyl-[3,3′-bipyridin]-5-yl)isonotinamide] | 5.9 | 1.17 |
| Cc1ccc(NC(=O)c2cccc(C(F)(F)F)c2)cc1-c1cccc(C2(C)COC2)c1 [Example 25, N-(6-methyl-3′-(3-methyloxetan-3-yl)-[1,1′-biphenyl]-3-yl)-3-(trifluoromethyl)benz-amide] | 0.87 | 0.154 |
| COc1ncc(-c2cc(NC(=O)c3cc(C(C)(C)N)cc(C(F)(F)F)c3)cnc2C)cc1C1(C#N)COC1 [Example 114, 3-(2-aminopropan-2-yl)-N-(5′-(3-cyanooxetan-3-yl)-6′-methoxy-2-methyl-[3,3′-bipyridin]-5-yl)-5-(trifluoromethyl)benzamide] | 17.5 | 3.26 |
| CCC(F)(F)c1cc(C(=O)Nc2cnc(C)c(-c3cnc(OC)c(C4(C#N)COC4)c3)c2)ccn1 [Example 117, N-(5′-(3-cyanooxetan-3-yl)-6′-methoxy-2-methyl-[3,3′-bipyridin]-5-yl)-2-(1,1-difluoropropyl)isonicotin-amide] | 7.19 | 1.43 |
| CCOc1nnc(-c2cc(NC(=O)c3ccnc(C(C)(F)F)c3)cnc2C)cc1C1(C)COC1 [Example 127, 2-(1,1-difluoroethyl)-N-(5-(6-ethoxy-5-(3-methyloxetan-3-yl)pyridazin-3-yl)-6-methylpyridin-3-yl)isonicotinamide] | 3.15 | 0.987 |
| Cc1ccc(NC(=O)c2ccnc(C(C)(C)C#N)c2)cc1-c1cccc(C2COC2)c1 [Example 28, 2-(2-cyanopropan-2-yl)-N-(6-methyl-3′-(oxetan-3-yl)-[1,1′-biphenyl]-3-yl)isonicotinamide] | 25000 | 25000 |
| COc1ncc(-c2cc(NC(=O)c3cc(C(C)(C)N)cc(C(F)(F)F)c3)cnc2C)cc1C1(CF)COC1 [Example 109, 3-(2-aminopropan-2-yl)-N-(5′-(3-(fluoromethyl)oxetan-3-yl)-6′-methoxy-2-methyl-[3,3′-bipyridin]-5-yl)-5-(trifluoromethyl)benzamide] | 9.5 | 2.24 |
| COc1ncc(-c2cc(NC(=O)c3ccnc(C(F)(F)F)c3)cnc2C)cc1C1(F)COC1 [Example 79, N-(5′-(3-fluorooxetan-3-yl)-6′-methoxy-2-methyl-[3,3′-bipyridin]-5-yl)-2-(trifluoromethyl)isonicotin-amide] | 4 | 0.493 |
| Cc1ncc(NC(=O)c2cccc(C(F)(F)F)c2)cc1-c1cc(C2(F)COC2)c(=O)n(CC(O)CO)c1 (centres unmarked) [Example 45, N-(1′-(2,3-dihydroxypropyl)-5′-(3-fluorooxetan-3-yl)-2-methyl-6′-oxo-1′,6′-dihydro-[3,3′-bipyridin]-5-yl)-3-(trifluoromethyl)benzamide] | 1180 | 121 |
